# Test results taken from ChEMBL document CHEMBL3102733, “The effect of chain length and unsaturation on Mtb Dxr inhibition and antitubercular killing activity of FR900098 analogs” (Bioorg Med Chem Lett, 2014).
# Experiments:
# [1] = molecular target: T1, 1-deoxy-D-xylulose 5-phosphate reductoisomerase (Mycobacterium tuberculosis, UniProt P9WNS1); test: Inhibition of Mycobacterium tuberculosis Dxr
# T1 sequence (P9WNS1 whole entry): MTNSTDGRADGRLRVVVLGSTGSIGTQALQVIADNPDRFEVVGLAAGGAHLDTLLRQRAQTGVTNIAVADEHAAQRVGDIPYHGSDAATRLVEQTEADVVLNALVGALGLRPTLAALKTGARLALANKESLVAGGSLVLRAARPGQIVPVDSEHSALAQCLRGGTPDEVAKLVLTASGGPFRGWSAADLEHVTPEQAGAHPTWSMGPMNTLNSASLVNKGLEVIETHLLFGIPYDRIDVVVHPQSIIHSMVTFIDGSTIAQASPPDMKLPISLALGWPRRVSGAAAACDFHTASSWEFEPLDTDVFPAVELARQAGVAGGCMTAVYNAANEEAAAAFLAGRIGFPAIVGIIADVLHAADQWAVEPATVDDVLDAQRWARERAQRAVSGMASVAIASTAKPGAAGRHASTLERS
# [2] = system: Mycobacterium tuberculosis; test: Antimycobacterial activity against Mycobacterium tuberculosis H37Rv assessed as growth inhibition in presence of 7H9 nutrient-rich media; type: functional
# [3] = system: Mycobacterium tuberculosis; test: Antimycobacterial activity against Mycobacterium tuberculosis H37Rv assessed as growth inhibition in presence of GAST minimal media; type: functional
# [4] = molecular target: T2, 1-deoxy-D-xylulose 5-phosphate reductoisomerase (Mycobacterium tuberculosis) (UniProt P9WNS1); test: Inhibition of Mycobacterium tuberculosis Dxr at 100 uM
# T2 sequence (whole entry): T1 sequence (P9WNS1 whole entry)
compound,measurement,setting,value
CC(=O)N(O)CCCP(=O)(O)O [FR-900098],IC50,[1],2.39 µM
CC(=O)N(O)C/C=C/P(=O)([O-])O.[Na+],MIC,[2],> 200 µg/mL
same,IC50,[1],1.07 µM
same,MIC,[3],150 µg/mL
CC(=O)N(O)CCCCCP(=O)([O-])O.[Na+],MIC,[2],> 200 µg/mL
same,inhibition,[4],86%
same,MIC,[3],> 200 µg/mL
CC(=O)N(O)CCCCP(=O)(OCOC(=O)C(C)(C)C)OCOC(=O)C(C)(C)C,MIC,[2],≥ 200 µg/mL
same,MIC,[3],150 µg/mL
CCOP(=O)(CCCCCN(O)C(C)=O)OCC,MIC,[2],> 200 µg/mL
same,MIC,[3],200 µg/mL
CCOP(=O)(CCN(O)C=O)OCC,MIC,[2],> 500 µg/mL
CCOP(=O)(CCCCN(O)C(C)=O)OCC,MIC,[2],> 200 µg/mL
same,MIC,[3],75 µg/mL
CCOP(=O)(CCN(O)C(C)=O)OCC,MIC,[2],> 500 µg/mL
CC(=O)N(O)C/C=C/P(=O)(OCOC(=O)C(C)(C)C)OCOC(=O)C(C)(C)C,MIC,[2],9.4 µg/mL
same,MIC,[3],12.5 µg/mL
CC(=O)N(O)CCCCP(=O)([O-])O.[Na+],MIC,[2],> 200 µg/mL
same,inhibition,[4],80%
same,MIC,[3],> 200 µg/mL
CCOP(=O)(/C=C/CN(O)C(C)=O)OCC,MIC,[2],> 200 µg/mL
same,MIC,[3],150 µg/mL
CC(=O)N(O)CCP(=O)([O-])O.[Na+],MIC,[2],> 200 µg/mL
same,inhibition,[4],74%
same,MIC,[3],150 µg/mL
